Results as given in patent US12396996B2, “Compounds, pharmaceutical compositions, and methods of their use in reversing cancer chemoresistance” (priority 2019, dated 2025).

Columns and labels:
800 cancer cell lines = experiment: Cell viability screen with GSEA of mesenchymal gene signature; type: cell-based; conditions: 0.005-1.28 μM, viability several days after treatment
Protocol: FIGS. 1D-1E are a series of scatter plots showing the results of a Gene Set Enrichment Analysis (GSEA) screen of 800 cancer cell lines for sensitivity to chaetocin applied at 9 different concentrations (0.005 μM, 0.01 μM, 0.02 μM, 0.04 μM, 0.08 μM, 0.16 μM, 0.32 μM, 0.64 μM, and 1.28 μM) in culture. Cell viability was measured several days after chaetocin treatment. FIG. 1D is a scatter plot showing the chaetocin sensitivity of all tested cells lines: mesenchymal gene expression signature (SNAIL-induced early-repressed gene set) (Y-axis) is plotted against area under the curve (AUC) calculated by measuring percent cell death caused by increasing doses of chaetocin (X-axis). Mesenchymal gene expression signature (SNAIL-induced early-repressed gene set) used in the Y-axis was based on the Javaid et al 2013 paper.
To determine whether sensitivity of cancer cells to chaetocin correlates with mesenchymal cell phenotype, the sensitivity or resistance of 800 cancer cell lines to chaetocin was assayed by the group of Cyril Benes treating each cell line with chaetocin at concentrations of 0.005 μM, 0.01 μM, 0.02 μM, 0.04 μM, 0.08 μM, 0.16 μM, 0.32 μM, 0.64 μM, and 1.28 μM. Cell viability was measured several days following treatment. […]

HMLE-SNAIL spheroids = experiment: 3-D tumor spheroid assay (Sytox/DAPI staining); type: cell-based, human; conditions: Sytox staining
Text: (§1) FIGS. 1F-1I show the results of a 3-D tumor spheroid assay formed by the chemotherapy-resistant breast cancer cell line, HMLE-SNAIL. […] Tumor spheroids are a model of real in vivo tumors, as they form a 3-D cell mass in which the hypoxic and often nutrient depleted microenvironment at the center of the tumor is enriched with mesenchymal, chemotherapy-resistant TIC cells. […] By staining spheroids with Sytox, which stains dead cells green, and DAPI, which stains the nuclei of all cells (living or dead), total fraction of dead cells is calculated. Also, the location of dead cells within the sphere is visualized with Sytox (green) staining. The results of FIGS. 1F-1I indicate that chaetocin a selective and potent killer of inner cells of the spheroids, enriched with mesenchymal, chemotherapy-resistant TIC cells, compared to other compounds tested. FIGS. 1J-1K show the results of a tumorsphere assay performed with TICs grown on serum-free, non-adherent culture conditions. […] The results of FIGS. 1J-1K indicate that chaetocin is effective in eliminating TICs in a dose dependent-manner.
To determine whether chaetocin affects TIC death in a tumor-like environment, 3-D tumor spheroid assays were performed in the presence or absence of chaetocin. Tumor spheroids are a model of a real tumor, as they form a 3-D cell mass similar to tumors in vivo. The local microenvironment of a spheroid recapitulates many of the in vivo properties of tumor. Importantly, the hypoxic and often nutrient depleted microenvironment at the center of the tumor is favorable for converting epithelial, non-TIC, chemotherapy-sensitive cancer cells into mesenchymal, TIC-rich, chemotherapy-resistant cells. […] Pharmacological agents were added and cell viability was calculated by staining cells with Sytox, which stains dead cells green, and DAPI, which stains the nuclei of all cells (living or dead). to provide the total cell number. Using this method, the total fraction of dead cells was calculated and compared between different drug conditions. More importantly, the location of dead cells within the sphere is visualized with Sytox (green) staining. FIGS. 1G-1I show fluorescence images of tumor spheroids under control conditions (no treatment; FIG. 1G), under treatment with various experimental chemotherapeutic agents (Y-27632, LY-450139, and IWP-L6 (Wnt); FIG. 1H), and with chaetocin treatment (FIG. 1I). […] This family of kinases are thought to be important for survival of TIC cells. IWP-L6 is an inhibitor of Wnt pathway—a pathway important for TIC cell survival and formation. LY-450139 is a NOTCH pathway inhibitor. NOTCH is also important for TIC cell viability and survival. […]

[1] = system: TICs (cancer stem/progenitor cells); experiment: Tumorsphere assay; type: cell-based; conditions: 0, 30, 80 nM; 14 days of culture
Text: as §1
To further determine the effect of chaetocin on eliminating TICs, a tumorsphere assay was performed on cancer cells under increasing concentrations of chaetocin. A tumorsphere is a solid spherical formation developed from the proliferation of one cancer stem/progenitor cell. […]

HMLE-TWIST cells = conditions: 20, 50, 100 nM for 5 or 15 hours, two days chaetocin-free, then doxorubicin
Protocol: Doxorubicin was added after two days and cell death was assayed with cleaved caspase-3 intensity.
To determine if EMT reversal with chaetocin can sensitize TIC-rich breast cancer cells, namely HMLE-TWIST cells, to conventional chemotherapeutic agents, cells were treated for 5 or 15 hours with different concentrations of chaetocin (20 nM, 50 nM, and 100 nM), as is schematized in FIG. 4A. Cells were then washed and incubated in chaetocin-free media for two days. Doxorubicin was then added, and cell death was assayed using FACS analysis of caspase-3 cleavage two days after doxorubicin addition.

Structure (SMILES): CN1C(=O)[C@@]23C[C@]4([C@]56C[C@@]78SS[C@](CO)(C(=O)N7[C@H]5Nc5ccccc56)N(C)C8=O)c5ccccc5N[C@@H]4N2C(=O)[C@@]1(CO)SS3 [chaetocin]
- sensitivity (AUC of percent cell death) versus mesenchymal gene signature (800 cancer cell lines): cells with mesenchymal transcriptional signature are sensitive to chaetocin
- location of dead cells within spheroid (HMLE-SNAIL spheroids): preferentially and effectively kills the inner spheroid cells
- number of tumorspheres per well [1]: can eliminate TICs at low doses
- reversal of resistance to doxorubicin (caspase-3 cleavage) (HMLE-TWIST cells): reverses chemotherapy resistance of mesenchymal, TIC-rich HMLE-TWIST cells to doxorubicin
